IC50, Ki and inhibition data for 13 molecules are collected here from ChEMBL document CHEMBL4229416, “Identification of PKMYT1 inhibitors by screening the GSK published protein kinase inhibitor set I and II” (Bioorg Med Chem, 2018).

The target of assay [1] is T1, Membrane-associated tyrosine- and threonine-specific cdc2-inhibitory kinase (Homo sapiens, UniProt Q99640).
T1 sequence (Q99640 whole entry): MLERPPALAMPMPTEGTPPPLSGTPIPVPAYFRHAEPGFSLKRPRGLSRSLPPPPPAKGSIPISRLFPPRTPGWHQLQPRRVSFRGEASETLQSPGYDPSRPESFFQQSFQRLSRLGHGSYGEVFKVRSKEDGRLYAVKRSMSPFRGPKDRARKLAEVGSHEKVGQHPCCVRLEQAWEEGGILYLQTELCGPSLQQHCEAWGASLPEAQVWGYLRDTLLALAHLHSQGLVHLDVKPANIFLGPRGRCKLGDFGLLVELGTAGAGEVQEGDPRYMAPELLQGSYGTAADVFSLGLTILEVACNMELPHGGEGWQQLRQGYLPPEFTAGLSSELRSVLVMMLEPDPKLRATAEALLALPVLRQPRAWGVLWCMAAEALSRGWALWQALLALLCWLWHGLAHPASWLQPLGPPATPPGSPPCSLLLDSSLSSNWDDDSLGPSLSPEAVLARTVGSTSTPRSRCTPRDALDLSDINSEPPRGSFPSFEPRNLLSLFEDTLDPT
Description: Inhibition of N-[3',6'-dihydroxy-3-oxo-3H-spiro(2-benzofuran-1,9'-xanthen)-5-yl]-N'-[2-(4-{4-[N-(2-chloro-6-methylphenyl)-5-carboxamido]-thiazol-2-yl})-amino-2-methyl-pyrimid-6-yl)piperazinyl]-ethyl]thiourea binding to human PKMYT1 kinase doamin expressed in Escherichia coli BL21 after 120 mins by fluorescence polarization asay. A general note: Fluorescence polarisation rises when a labelled molecule tumbles more slowly, as on binding a larger partner.

In assay [2] the target is T1, Membrane-associated tyrosine- and threonine-specific cdc2-inhibitory kinase. Description: Inhibition of human full length PKMYT1 expressed in HEK293 cells using EFS (247 to 259 residues) as substrate after 1 hr by fluorescence polarization immunoasay.
Assay [3] deals with T2, Membrane-associated tyrosine- and threonine-specific cdc2-inhibitory kinase (Homo sapiens) (UniProt Q99640).
T2 sequence (whole entry): T1 sequence (Q99640 whole entry)
Description: Inhibition of PKMYT1 in human HT29 cells assessed as decrease in Cdk1 phosphorylation at tyrosine 15 at 4 uM after 24 hrs by Western blot method. It is filed as cell-based.

The target of assay [4] is T2, Membrane-associated tyrosine- and threonine-specific cdc2-inhibitory kinase (Homo sapiens). Description: Inhibition of human full length PKMYT1 expressed in HEK293 cells assessed as decrease in GST-tagged Cdk1 phosphorylation at tyrosine 15 at 5 to 20 uM after 1 hr by Western blot method relative to control. The assay is classed as cell-based. In general terms: A western blot detects proteins with antibodies after separation by electrophoresis.

SMILES strings stand for the structures. The source made the active and inactive calls. The rule behind the calls is not given here.

By IC50 is commonly meant the concentration needed to halve the response being measured. As usually defined, the Ki is a measure of affinity in units of concentration, obtained from inhibition or displacement. The low end stands for higher affinity, the high end for lower affinity.

Consider `Cc1cc(O)cc(Nc2ccnc3cc(-c4ccccn4)ccc23)c1`, for which the IC50 was determined as 9430 nM in assay [1] and 543 nM in assay [2]. Also, the inhibition constant (Ki) was 6150 nM in assay [1] and 51.7 nM in assay [2]. Besides, the inhibition result in assay [3] and in assay [4] was “Active” throughout.

In assay [1], `CCN(CC)CCOc1ccc(Nc2ncc3cc(-c4c(Cl)cccc4Cl)c(=O)n(C)c3n2)cc1` [PD-0166285] showed an IC50 of 31.1 nM and a Ki of 2 nM. In assay [2], this molecule yielded an IC50 of 8 nM and an inhibition constant (Ki) of 0.8 nM.

Turning to `CNC(=O)c1ccccc1Nc1nc(Nc2cccc(CS(C)(=O)=O)c2)ncc1C`, the values for the IC50 in assay [1] and in assay [2] were 151 nM and 115 nM, respectively. Besides, the Ki in assay [1] amounted to 104 nM; in assay [2], 10.9 nM. In addition, the inhibition result in assay [3] and in assay [4] was “Active” throughout.

On to `CNC(=O)c1ccccc1Nc1nc(Nc2ccc(N3CCOCC3)cc2)ncc1Cl`, for which the IC50 worked out at 352 nM in assay [1] and 270 nM in assay [2]. The results for the Ki in assay [1] and in assay [2] were 180 nM and 25.7 nM, respectively. The inhibition result in assay [3] and in assay [4] was “Active” each time.

`NC(=O)c1cc(-c2ccncc2)cc(-c2ccccc2)c1N` [GSK-625137A]: the IC50 in assay [1] was 11400 nM; in assay [2] it was 58000 nM. Further, the Ki was determined as 5810 nM in assay [1] and 5520 nM in assay [2]. The inhibition result in assay [4] was “Active”.

As to `COc1cc2ncnc(Nc3cccc(Cl)c3)c2cc1OC` [TYRPHOSTIN AG-1478], in assay [1], the IC50 was 55000 nM and the Ki is 26200 nM. In assay [2], this molecule returned an IC50 of 19600 nM and a Ki of 1870 nM.

Turning to `Cc1cc(O)cc(C)c1/C=C/c1cncc(C(N)=O)c1` [GW435821X], in assay [1], the IC50 came to 876 nM and the affinity, expressed as Ki, was 522 nM. In assay [2], this molecule had an IC50 of 14500 nM and a Ki of 1380 nM. In assay [4], the inhibition result is “Active”.

For `Cc1cc(Nc2ncc3cc(-c4c(Cl)cccc4Cl)c(=O)n(C)c3n2)ccc1F`, in assay [1], the IC50 amounted to 2700 nM and the Ki is 13500 nM. In addition, in assay [2], it took 109 nM to reach half-maximal inhibition (IC50) and the Ki was found to be 10.4 nM.

As for `Oc1cccc(Nc2ccnc3cc(-c4ccncc4)ccc23)c1`, the IC50 in assay [1] worked out at 332 nM; in assay [2] it was 706 nM. The figures for the Ki in assay [1] and in assay [2] were 201 nM and 67.2 nM, respectively. Also, the inhibition result in assay [4] is “Active”.

In assay [1], `O=C(Nc1cccc(-c2nn3ncccc3c2-c2ccnc(Nc3cccnc3)n2)c1)c1c(F)cccc1F` came in with a concentration for half-maximal inhibition (IC50) of 18900 nM and a Ki of 14700 nM. In assay [2], the IC50 amounted to 7560 nM and the Ki was 720 nM. Further, the inhibition result in assay [4] is “Active”.

Consider `NC(=O)c1cccc(Nc2nccc(Nc3cccc4[nH]ncc34)n2)c1` [GW782612X], for which, in assay [4], the inhibition result was “Active”.

In the case of `COc1cc(Nc2ncc(C#N)c(Nc3ccccc3C(N)=O)n2)ccc1N1CCN(C)CC1`, the inhibition result in assay [3] and in assay [4] was “Active” throughout.

In assay [1], `Cn1c(=O)c(-c2c(Cl)cccc2Cl)cc2cnc(Nc3ccc(N4CCOCC4)cc3)nc21` yielded an IC50 of 55 nM and a Ki of 8.1 nM. For the same molecule, in assay [2], 24 nM corresponded to half-maximal inhibition (IC50) and affinity was put at a Ki of 2.3 nM.
